In patent publication US20080269241A1, “BICYCLIC AMINOPROPYL TETRAHYDRO-PYRAZOLO-PYRIDINE MODULATORS OF CATHEPSIN S” (priority 2007, published 2008) one finds IC50 data, which are given here for 21 compounds.

As usually defined, the IC50 is the midpoint of a concentration-inhibition curve.

Molecules are shown by their SMILES.

In the experiment the target is T1, human cathepsin S (CatS) (Homo sapiens, UniProt P25774).
T1 construct: made in house; host or cells: baculovirus system (insect cells)
T1 sequence (P25774 115-331): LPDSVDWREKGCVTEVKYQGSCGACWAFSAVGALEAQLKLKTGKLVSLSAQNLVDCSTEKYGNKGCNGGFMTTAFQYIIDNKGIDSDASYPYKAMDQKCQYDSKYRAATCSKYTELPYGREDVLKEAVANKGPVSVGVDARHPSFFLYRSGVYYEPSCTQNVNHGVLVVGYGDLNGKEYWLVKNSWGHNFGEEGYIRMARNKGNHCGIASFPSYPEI
Kind of experiment: Recombinant human cathepsin S (CatS) fluorogenic substrate inhibition assay. It counts as biochemical. The conditions noted are these: recombinant human CatS, 10 μM Z-Valine-Valine-Arginine-AMC, pH 5.0; average of results obtained; read-out: CatS IC50. On the procedure: Recombinant human cathepsin S (CatS) was expressed in the baculovirus system and purified in one step with a thiopropyl-sepharose column. […] The assay is run in 150 mM sodium acetate pH 5.0 containing 1.5 mM DTT and 150 mM NaCl. […] Measurements are taken every min for 20 min. The rate is calculated from the slope of the increase in fluorescence and the percent inhibition is calculated from this.
As for `CS(=O)(=O)N1CCc2c(c(-c3ccc(C(F)(F)F)c(CNC(=O)CN4CCS(=O)(=O)CC4)c3)nn2CCCN2CCC(N3CCCC3=O)CC2)C1` [Example 162, 2-(1,1-Dioxo-1λ^6-thiomorpholin-4-yl)-N-[5-(5-methanesulfonyl-1-{3-[4-(2-oxo-pyrrolidin-1-yl)-piperidin-1-yl]-propyl}-4,5,6,7-tetrahydro-1H-pyrazolo[4,3-c]pyridin-3-yl)-2-trifluoromethyl-benzyl]-acetamide], the IC50 is 380 nM. The result for `CS(=O)(=O)N1CCc2c(c(-c3ccc(C(F)(F)F)c(CNc4nc5ccccc5[nH]4)c3)nn2CC(O)CN2CCC(N3CCCC3=O)CC2)C1` (stereo not drawn) [Example 175, 1-{1-[3-(3-{3-[(1H-Benzoimidazol-2-ylamino)-methyl]-4-trifluoromethyl-phenyl}-5-methanesulfonyl-4,5,6,7-tetrahydro-pyrazolo[4,3-c]pyridin-1-yl)-2-hydroxy-propyl]-piperidin-4-yl}-pyrrolidin-2-one] reads 4150 nM; that for `CS(=O)(=O)N1CCc2c(c(-c3ccc(C(F)(F)F)c(Cn4cnnn4)c3)nn2CCCN2CCC(N3CCCC3=O)CC2)C1` [Example 176, 1-(1-{3-[5-Methanesulfonyl-3-(3-tetrazol-1-ylmethyl-4-trifluoromethyl-phenyl)-4,5,6,7-tetrahydro-pyrazolo[4,3-c]pyridin-1-yl]-propyl}-piperidin-4-yl)-pyrrolidin-2-one], 1320 nM; that for `Cc1coc(NCc2cc(-c3nn(CCCN4CCC(N5CCCC5=O)CC4)c4c3CN(S(C)(=O)=O)CC4)ccc2C(F)(F)F)n1` [Example 177, 1-{1-[3-(5-Methanesulfonyl-3-{3-[(4-methyl-oxazol-2-ylamino)-methyl]-4-trifluoromethyl-phenyl}-4,5,6,7-tetrahydro-pyrazolo[4,3-c]pyridin-1-yl)-propyl]-piperidin-4-yl}-pyrrolidin-2-one], 1660 nM. With `CS(=O)(=O)N1CCc2c(c(-c3ccc(C(F)(F)F)c(CNC=O)c3)nn2CC(O)CN2CCC(N3CCCC3=O)CC2)C1` (stereo not drawn) [Example 178, N-[5-(1-{2-Hydroxy-3-[4-(2-oxo-pyrrolidin-1-yl)-piperidin-1-yl]-propyl}-5-methanesulfonyl-4,5,6,7-tetrahydro-1H-pyrazolo[4,3-c]pyridin-3-yl)-2-trifluoromethyl-benzyl]-formamide], the IC50 stood at 1650 nM.

For `CS(=O)(=O)N1CCc2c(c(-c3ccc(C(F)(F)F)c(CNCCN4CCCCC4)c3)nn2CC(O)CN2CCC(N3CCCC3=O)CC2)C1` (stereo not drawn) [Example 179, 1-{1-[2-Hydroxy-3-(5-methanesulfonyl-3-{3-[(2-piperidin-1-yl-ethylamino)-methyl]-4-trifluoromethyl-phenyl}-4,5,6,7-tetrahydro-pyrazolo[4,3-c]pyridin-1-yl)-propyl]-piperidin-4-yl}-pyrrolidin-2-one], the IC50 turned out to be 6250 nM. The figure for `CN1CCN(CC(=O)NCc2cc(-c3nn(CCCN4CCC(N5CCCC5=O)CC4)c4c3CN(S(C)(=O)=O)CC4)ccc2C(F)(F)F)CC1` [Example 180, N-[5-(5-Methanesulfonyl-1-{3-[4-(2-oxo-pyrrolidin-1-yl)-piperidin-1-yl]-propyl}-4,5,6,7-tetrahydro-1H-pyrazolo[4,3-c]pyridin-3-yl)-2-trifluoromethyl-benzyl]-2-(4-methyl-piperazin-1-yl)-acetamide] is 3730 nM; for `CN(C)CCC(=O)NCc1cc(-c2nn(CCCN3CCC(N4CCCC4=O)CC3)c3c2CN(S(C)(=O)=O)CC3)ccc1C(F)(F)F` [Example 181, 3-Dimethylamino-N-[5-(5-methanesulfonyl-1-{3-[4-(2-oxo-pyrrolidin-1-yl)-piperidin-1-yl]-propyl}-4,5,6,7-tetrahydro-1H-pyrazolo[4,3-c]pyridin-3-yl)-2-trifluoromethyl-benzyl]-propionamide] it is 1520 nM; for `CS(=O)(=O)N1CCc2c(c(-c3ccc(C(F)(F)F)c(CNC(=O)CN4CCCC4=O)c3)nn2CCCN2CCC(N3CCCC3=O)CC2)C1` [Example 182, N-[5-(5-Methanesulfonyl-1-{3-[4-(2-oxo-pyrrolidin-1-yl)-piperidin-1-yl]-propyl}-4,5,6,7-tetrahydro-1H-pyrazolo[4,3-c]pyridin-3-yl)-2-trifluoromethyl-benzyl]-2-(2-oxo-pyrrolidin-1-yl)-acetamide] it is 900 nM. The figure for `CS(=O)(=O)N1CCc2c(c(-c3ccc(C(F)(F)F)c(CNC(=O)CN4CCCC4)c3)nn2CCCN2CCC(N3CCCC3=O)CC2)C1` [Example 183, N-[5-(5-Methanesulfonyl-1-{3-[4-(2-oxo-pyrrolidin-1-yl)-piperidin-1-yl]-propyl}-4,5,6,7-tetrahydro-1H-pyrazolo[4,3-c]pyridin-3-yl)-2-trifluoromethyl-benzyl]-2-pyrrolidin-1-yl-acetamide] is 800 nM; for `CS(=O)(=O)N1CCc2c(c(-c3ccc(C(F)(F)F)c(CNC(=O)CN4CCC(O)C4)c3)nn2CCCN2CCC(N3CCCC3=O)CC2)C1` (stereo not drawn) [Example 184, 2-(3-Hydroxy-pyrrolidin-1-yl)-N-[5-(5-methanesulfonyl-1-{3-[4-(2-oxo-pyrrolidin-1-yl)-piperidin-1-yl]-propyl}-4,5,6,7-tetrahydro-1H-pyrazolo[4,3-c]pyridin-3-yl)-2-trifluoromethyl-benzyl]-acetamide] it is 820 nM; for `CS(=O)(=O)N1CCc2c(c(-c3ccc(C(F)(F)F)c(CNC(=O)CO)c3)nn2CCCN2CCC(N3CCCC3=O)CC2)C1` [Example 187, 2-Hydroxy-N-[5-(5-methanesulfonyl-1-{3-[4-(2-oxo-pyrrolidin-1-yl)-piperidin-1-yl]-propyl}-4,5,6,7-tetrahydro-1H-pyrazolo[4,3-c]pyridin-3-yl)-2-trifluoromethyl-benzyl]-acetamide] it is 1800 nM. In the case of `CS(=O)(=O)N1CCc2c(c(-c3ccc(C(F)(F)F)c(CNC(=O)Cn4cncn4)c3)nn2CCCN2CCC(N3CCCC3=O)CC2)C1` [Example 188, N-[5-(5-Methanesulfonyl-1-{3-[4-(2-oxo-pyrrolidin-1-yl)-piperidin-1-yl]-propyl}-4,5,6,7-tetrahydro-1H-pyrazolo[4,3-c]pyridin-3-yl)-2-trifluoromethyl-benzyl]-2-[1,2,4]triazol-1-yl-acetamide], the IC50 came out at 590 nM. With `CS(=O)(=O)N1CCc2c(c(-c3ccc(C(F)(F)F)c(CNC(=O)Cc4ccncc4)c3)nn2CCCN2CCC(N3CCCC3=O)CC2)C1` [Example 189, N-[5-(5-Methanesulfonyl-1-{3-[4-(2-oxo-pyrrolidin-1-yl)-piperidin-1-yl]-propyl}-4,5,6,7-tetrahydro-1H-pyrazolo[4,3-c]pyridin-3-yl)-2-trifluoromethyl-benzyl]-2-pyridin-4-yl-acetamide], the IC50 was 510 nM. The result for `Cn1ccnc1C(=O)NCc1cc(-c2nn(CC(O)CN3CCC(N4CCCC4=O)CC3)c3c2CN(S(C)(=O)=O)CC3)ccc1C(F)(F)F` (stereo not drawn) [Example 190, 1-Methyl-1H-imidazole-2-carboxylic acid 5-(1-{2-hydroxy-3-[4-(2-oxo-pyrrolidin-1-yl)-piperidin-1-yl]-propyl}-5-methanesulfonyl-4,5,6,7-tetrahydro-1H pyrazolo[4,3-c]pyridin-3-yl)-2-trifluoromethyl-benzylamide] reads 1700 nM. On to `Cc1ccc(C(=O)Nc2cc(-c3nn(CCCN4CCN(c5cccc(Cl)c5)CC4)c4c3CN(S(C)(=O)=O)CC4)ccc2Cl)cc1` [Example 198, N-[2-Chloro-5-(1-{3-[4-(3-chloro-phenyl)-piperazin-1-yl]-propyl}-5-methanesulfonyl-4,5,6,7-tetrahydro-1H-pyrazolo[4,3-c]pyridin-3-yl)-phenyl]-4-methyl-benzamide], for which the IC50 amounted to 410 nM.

Consider `CN(C)c1ccc(C(=O)Nc2cc(-c3nn(CCCN4CCN(c5cccc(Cl)c5)CC4)c4c3CN(S(C)(=O)=O)CC4)ccc2Cl)cc1` [Example 199, N-[2-Chloro-5-(1-{3-[4-(3-chloro-phenyl)-piperazin-1-yl]-propyl}-5-methanesulfonyl-4,5,6,7-tetrahydro-1H-pyrazolo[4,3-c]pyridin-3-yl)-phenyl]-4-dimethylamino-benzamide], for which the concentration for half-maximal inhibition (IC50) stood at 470 nM.

For the compound `CS(=O)(=O)N1CCc2c(c(-c3ccc(Cl)c(NC(=O)c4ccc(Cl)cc4)c3)nn2CCCN2CCN(c3cccc(Cl)c3)CC2)C1` [Example 200, 4-Chloro-N-[2-chloro-5-(1-{3-[4-(3-chloro-phenyl)-piperazin-1-yl]-propyl}-5-methanesulfonyl-4,5,6,7-tetrahydro-1H-pyrazolo[4,3-c]pyridin-3-yl)-phenyl]-benzamide], the IC50 is 600 nM. With `CS(=O)(=O)N1CCc2c(c(-c3ccc(Cl)c(NC(=O)c4ccc(C#N)cc4)c3)nn2CCCN2CCN(c3cccc(Cl)c3)CC2)C1` [Example 201, N-[2-Chloro-5-(1-{3-[4-(3-chloro-phenyl)-piperazin-1-yl]-propyl}-5-methanesulfonyl-4,5,6,7-tetrahydro-1H-pyrazolo[4,3-c]pyridin-3-yl)-phenyl]-4-cyano-benzamide], the IC50 was determined as 580 nM. The result for `CS(=O)(=O)N1CCc2c(c(-c3ccc(Cl)c(NS(=O)(=O)Cc4ccccc4)c3)nn2CCCN2CCN(c3cccc(Cl)c3)CC2)C1` [Example 202, N-[2-Chloro-5-(1-{3-[4-(3-chloro-phenyl)-piperazin-1-yl]-propyl}-5-methanesulfonyl-4,5,6,7-tetrahydro-1H-pyrazolo[4,3-c]pyridin-3-yl)-phenyl]-C-phenyl-methanesulfonamide] reads 680 nM. With `CS(=O)(=O)N1CCc2c(c(-c3ccc(Cl)c(NS(=O)(=O)/C=C/c4ccccc4)c3)nn2CCCN2CCN(c3cccc(Cl)c3)CC2)C1` [Example 203, 2-Phenyl-ethenesulfonic acid [2-chloro-5-(1-{3-[4-(3-chloro-phenyl)-piperazin-1-yl]-propyl}-5-methanesulfonyl-4,5,6,7-tetrahydro-1H-pyrazolo[4,3-c]pyridin-3-yl)-phenyl]-amide], the 50% inhibitory concentration (IC50) is 690 nM.
